Data: PubChem BioAssay (NCI)
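These data come from cells grown in 96-well plates and exposed to compound for 48 hours at five concentrations. GI50 = concentration required for 50% inhibition of growth. TGI: total growth inhibition.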

Experiments:
Assay in all cases: growth of human tumour cells (NCI), 48 h
NCI-H522 lung = test system: NCI-H522 lung
HOP-92 NSCLC = test system: HOP-92 NSCLC
OVCAR-3 ovarian = test system: OVCAR-3 ovarian
LOX IMVI melanoma = test system: LOX IMVI melanoma
SK-MEL-5 melanoma = test system: SK-MEL-5 melanoma
PC-3 prostate = test system: PC-3 prostate
A549 NSCLC = test system: A549 NSCLC
COLO 205 colon = test system: COLO 205 colon
MOLT-4 leukemia = test system: MOLT-4 leukemia
CCRF-CEM leukemia = test system: CCRF-CEM leukemia
MCF7 breast = test system: MCF7 breast
MDA-MB-435 = test system: MDA-MB-435
NCI-H226 lung = test system: NCI-H226 lung
SN12C renal = test system: SN12C renal
NCI-H23 lung = test system: NCI-H23 lung
SK-MEL-2 melanoma = test system: SK-MEL-2 melanoma
U251 CNS = test system: U251 CNS
ACHN renal = test system: ACHN renal
BT-549 breast = test system: BT-549 breast
HS 578T breast = test system: HS 578T breast
UO-31 renal = test system: UO-31 renal
UACC-62 melanoma = test system: UACC-62 melanoma
M14 melanoma = test system: M14 melanoma
HL-60(TB) leukemia = test system: HL-60(TB) leukemia
TK-10 renal = test system: TK-10 renal
HT29 colon = test system: HT29 colon
MALME-3M melanoma = test system: MALME-3M melanoma
HCC-2998 colon = test system: HCC-2998 colon
786-0 renal = test system: 786-0 renal
HCT-116 colon = test system: HCT-116 colon
EKVX NSCLC = test system: EKVX NSCLC
SF-295 CNS = test system: SF-295 CNS
HOP-62 NSCLC = test system: HOP-62 NSCLC
OVCAR-5 ovarian = test system: OVCAR-5 ovarian
UACC-257 melanoma = test system: UACC-257 melanoma
HCT-15 colon = test system: HCT-15 colon
SF-539 CNS = test system: SF-539 CNS
SK-MEL-28 melanoma = test system: SK-MEL-28 melanoma
SK-OV-3 ovarian = test system: SK-OV-3 ovarian
SF-268 CNS = test system: SF-268 CNS
T-47D breast = test system: T-47D breast
KM12 colon = test system: KM12 colon
RPMI-8226 leukemia = test system: RPMI-8226 leukemia
OVCAR-8 ovarian = test system: OVCAR-8 ovarian
IGROV1 ovarian = test system: IGROV1 ovarian
SW-620 colon = test system: SW-620 colon
OVCAR-4 ovarian = test system: OVCAR-4 ovarian
SR leukemia = test system: SR leukemia
MDA-MB-231 breast = test system: MDA-MB-231 breast
NCI/ADR-RES ovarian = test system: NCI/ADR-RES ovarian
RXF 393 renal = test system: RXF 393 renal
K-562 leukemia = test system: K-562 leukemia
SNB-75 CNS = test system: SNB-75 CNS
SNB-19 CNS = test system: SNB-19 CNS
A498 renal = test system: A498 renal

With Cc1cc(N(CCNc2ccnc3cc(Cl)ccc23)Cc2ccc3c(c2)OCO3)nc(N2CCCC2)n1 the GI50 (NCI-H522 lung) was 1740 nM, the TGI (NCI-H522 lung) was 3790 nM and the GI50 (HOP-92 NSCLC) was 695 nM. It also gave a TGI (HOP-92 NSCLC) of 2860 nM, a GI50 (OVCAR-3 ovarian) of 1740 nM and a TGI (OVCAR-3 ovarian) of 3810 nM. The GI50 (LOX IMVI melanoma) was 1600 nM, the TGI (LOX IMVI melanoma) was 3160 nM and the GI50 (SK-MEL-5 melanoma) was 1760 nM. It also gave a TGI (SK-MEL-5 melanoma) of 3210 nM, a GI50 (PC-3 prostate) of 2850 nM and a TGI (PC-3 prostate) of 14000 nM. For the same compound, the GI50 (A549 NSCLC) was 1670 nM, the TGI (A549 NSCLC) was 4960 nM and the GI50 (COLO 205 colon) was 1530 nM. For the same compound, the TGI (COLO 205 colon) was 3170 nM, the GI50 (MOLT-4 leukemia) was 1860 nM and the TGI (MOLT-4 leukemia) was 7030 nM. For the same compound, the GI50 (CCRF-CEM leukemia) was 1570 nM, the TGI (CCRF-CEM leukemia) was 9090 nM and the GI50 (MCF7 breast) was 1490 nM. It also gave a TGI (MCF7 breast) of 4190 nM, a GI50 (MDA-MB-435) of 1620 nM and a TGI (MDA-MB-435) of 3180 nM. It also gave a GI50 (NCI-H226 lung) of 2460 nM, a TGI (NCI-H226 lung) of 6860 nM and a GI50 (SN12C renal) of 1500 nM. For the same compound, the TGI (SN12C renal) was 3870 nM, the GI50 (NCI-H23 lung) was 2000 nM and the TGI (NCI-H23 lung) was 6250 nM. For the same compound, the GI50 (SK-MEL-2 melanoma) was 1820 nM, the TGI (SK-MEL-2 melanoma) was 3620 nM and the GI50 (U251 CNS) was 1360 nM. For the same compound, the TGI (U251 CNS) was 3210 nM, the GI50 (ACHN renal) was 1910 nM and the TGI (ACHN renal) was 4090 nM. The GI50 (BT-549 breast) was 1820 nM, the TGI (BT-549 breast) was 4270 nM and the GI50 (HS 578T breast) was 1720 nM. It also gave a TGI (HS 578T breast) of 5020 nM, a GI50 (UO-31 renal) of 1260 nM and a TGI (UO-31 renal) of 2990 nM. For the same compound, the GI50 (UACC-62 melanoma) was 1880 nM, the TGI (UACC-62 melanoma) was 3490 nM and the GI50 (M14 melanoma) was 1830 nM. It also gave a TGI (M14 melanoma) of 3710 nM, a GI50 (HL-60(TB) leukemia) of 1950 nM and a TGI (HL-60(TB) leukemia) of 4060 nM. It also gave a GI50 (TK-10 renal) of 1740 nM, a TGI (TK-10 renal) of 3800 nM and a GI50 (HT29 colon) of 706 nM. The TGI (HT29 colon) was 3660 nM, the GI50 (MALME-3M melanoma) was 1890 nM and the TGI (MALME-3M melanoma) was 3540 nM. For the same compound, the GI50 (HCC-2998 colon) was 1890 nM, the TGI (HCC-2998 colon) was 3900 nM and the GI50 (786-0 renal) was 1330 nM. The TGI (786-0 renal) was 2850 nM, the GI50 (HCT-116 colon) was 532 nM and the TGI (HCT-116 colon) was 2140 nM. For the same compound, the GI50 (EKVX NSCLC) was 2740 nM, the TGI (EKVX NSCLC) was 14200 nM and the GI50 (SF-295 CNS) was 1340 nM. For the same compound, the TGI (SF-295 CNS) was 2880 nM, the GI50 (HOP-62 NSCLC) was 1860 nM and the TGI (HOP-62 NSCLC) was 10200 nM. The GI50 (OVCAR-5 ovarian) was 1870 nM, the TGI (OVCAR-5 ovarian) was 4950 nM and the GI50 (UACC-257 melanoma) was 1640 nM. It also gave a TGI (UACC-257 melanoma) of 3240 nM, a GI50 (HCT-15 colon) of 1220 nM and a TGI (HCT-15 colon) of 3180 nM. For the same compound, the GI50 (SF-539 CNS) was 1600 nM, the TGI (SF-539 CNS) was 3090 nM and the GI50 (SK-MEL-28 melanoma) was 1680 nM. The TGI (SK-MEL-28 melanoma) was 3200 nM, the GI50 (SK-OV-3 ovarian) was 2630 nM and the TGI (SK-OV-3 ovarian) was 8150 nM. It also gave a GI50 (SF-268 CNS) of 2200 nM, a TGI (SF-268 CNS) of 7160 nM and a GI50 (T-47D breast) of 1930 nM. For the same compound, the TGI (T-47D breast) was 5440 nM, the GI50 (KM12 colon) was 2700 nM and the TGI (KM12 colon) was 11500 nM. The GI50 (RPMI-8226 leukemia) was 1470 nM, the TGI (RPMI-8226 leukemia) was 3990 nM and the GI50 (OVCAR-8 ovarian) was 1910 nM. The TGI (OVCAR-8 ovarian) was 5010 nM, the GI50 (IGROV1 ovarian) was 1540 nM and the TGI (IGROV1 ovarian) was 3640 nM. The GI50 (SW-620 colon) was 1190 nM, the TGI (SW-620 colon) was 2940 nM and the GI50 (OVCAR-4 ovarian) was 1390 nM. For the same compound, the TGI (OVCAR-4 ovarian) was 3240 nM, the GI50 (SR leukemia) was 250 nM and the TGI (SR leukemia) was 635 nM. The GI50 (MDA-MB-231 breast) was 1280 nM, the TGI (MDA-MB-231 breast) was 3270 nM and the GI50 (NCI/ADR-RES ovarian) was 1790 nM. The TGI (NCI/ADR-RES ovarian) was 5560 nM, the GI50 (RXF 393 renal) was 1280 nM and the TGI (RXF 393 renal) was 2740 nM. It also gave a GI50 (K-562 leukemia) of 700 nM, a TGI (K-562 leukemia) of 3200 nM and a GI50 (SNB-75 CNS) of 1340 nM. The TGI (SNB-75 CNS) was 3000 nM, the GI50 (SNB-19 CNS) was 2530 nM and the TGI (SNB-19 CNS) was 11300 nM. It also gave a GI50 (A498 renal) of 1610 nM and a TGI (A498 renal) of 3940 nM.
